Assay results reported in patent US20050119179A1, “Inositol 1, 4, 5-triphosphate receptor (type 1), phosphorylation and modulation by CDC2” (priority 2003, published 2005).

What was measured:
IP3 receptor = IP3 receptor function in wild type and phosphorylation deficient mutant DT40 cells before and after activation; type: cell-based; settings: phosphorylation deficient mutant, FIG. 6
Description: The compounds were tested on wild type DT40 cells. The phosphorylation deficient cells were generated by transfecting phosphorylation deficient IP3R mutant cDNAs into triple IP3R deficient DT40 cells. These cells express mutant IP3R with Ser421 and Thr799 replaced by alanine residues. The remaining portion of the receptor is the same as native IP3R.

native cerebellar IP3R = molecular target: T1, native cerebellar IP3R (Mus musculus, UniProt P11881); settings: read-out: affinity for IP3; cited from earlier work
T1 construct: host or cells: cerebellum

[1] = tested on: IP3R1 phosphorylation at Ser421 and Thr799 in DT40 cells; assay: IP3R1 phosphorylation in DT40 cells, immunoblot with αSer421 and αThr799; type: cell-based; settings: 1 μM nocodazole, 16 h, serum-starved DT40 cells, compared to control cells
Description: FIG. 4 IP3R1 phosphorylation at Ser421 and Thr799 occurs in vivo. DT40 cells were serum-starved for 24 h and cultured with and without 1 μM nocodazole (control) for 16 h in RPMI-1640 medium containing 10% FBS. After 16 h in culture, cells were washed two times with PBS, and cell lysates were resolved on 6% SDS-PAGE gels and immunoblotted with αSer^421 (A), αThr^799 (B) or αIP3R1 (C).
Cells were equalized for number and lysed in ice-cold lysis buffer containing 0.5% Nonidet P-40, 25 mM HEPES, pH 7.4, 150 mM NaCl, 1 mM EDTA, 1 mM sodium orthovanadate and protease inhibitors. Cell lysates were centrifuged at 13,000× g in a microcentrifuge, and the supernatants were subjected to immunoblotting and immunoprecipitation (Frangioni and Neal 1993; Matter, et al., 1993). The membranes were blocked in TBST (20 mM Tris/HCl, pH 7.4, 0.9% NaCl, and 0.05% Tween 20) containing 5% nonfat dried milk for 1 hr followed by incubation with primary antibodies. After extensive washings, the membranes were incubated with secondary antibody conjugated to horseradish peroxidase (goat anti-rabbit IgG; Pharmingen, Calif.) in TBST containing 5% nonfat dried milk. The immunoblots were analyzed using an ECL detection system (Amersham, Piscataway, N.J.). […] Phosphoproteins were separated by SDS-PAGE and detected by autoradiography as described (Frangioni and Neal 1993; Means 1994). […]

[2] = tested on: syncytial cell death induced by HIV infection; settings: inhibition of cdc2 activity; cited from earlier work

T1 sequence (P11881 whole entry): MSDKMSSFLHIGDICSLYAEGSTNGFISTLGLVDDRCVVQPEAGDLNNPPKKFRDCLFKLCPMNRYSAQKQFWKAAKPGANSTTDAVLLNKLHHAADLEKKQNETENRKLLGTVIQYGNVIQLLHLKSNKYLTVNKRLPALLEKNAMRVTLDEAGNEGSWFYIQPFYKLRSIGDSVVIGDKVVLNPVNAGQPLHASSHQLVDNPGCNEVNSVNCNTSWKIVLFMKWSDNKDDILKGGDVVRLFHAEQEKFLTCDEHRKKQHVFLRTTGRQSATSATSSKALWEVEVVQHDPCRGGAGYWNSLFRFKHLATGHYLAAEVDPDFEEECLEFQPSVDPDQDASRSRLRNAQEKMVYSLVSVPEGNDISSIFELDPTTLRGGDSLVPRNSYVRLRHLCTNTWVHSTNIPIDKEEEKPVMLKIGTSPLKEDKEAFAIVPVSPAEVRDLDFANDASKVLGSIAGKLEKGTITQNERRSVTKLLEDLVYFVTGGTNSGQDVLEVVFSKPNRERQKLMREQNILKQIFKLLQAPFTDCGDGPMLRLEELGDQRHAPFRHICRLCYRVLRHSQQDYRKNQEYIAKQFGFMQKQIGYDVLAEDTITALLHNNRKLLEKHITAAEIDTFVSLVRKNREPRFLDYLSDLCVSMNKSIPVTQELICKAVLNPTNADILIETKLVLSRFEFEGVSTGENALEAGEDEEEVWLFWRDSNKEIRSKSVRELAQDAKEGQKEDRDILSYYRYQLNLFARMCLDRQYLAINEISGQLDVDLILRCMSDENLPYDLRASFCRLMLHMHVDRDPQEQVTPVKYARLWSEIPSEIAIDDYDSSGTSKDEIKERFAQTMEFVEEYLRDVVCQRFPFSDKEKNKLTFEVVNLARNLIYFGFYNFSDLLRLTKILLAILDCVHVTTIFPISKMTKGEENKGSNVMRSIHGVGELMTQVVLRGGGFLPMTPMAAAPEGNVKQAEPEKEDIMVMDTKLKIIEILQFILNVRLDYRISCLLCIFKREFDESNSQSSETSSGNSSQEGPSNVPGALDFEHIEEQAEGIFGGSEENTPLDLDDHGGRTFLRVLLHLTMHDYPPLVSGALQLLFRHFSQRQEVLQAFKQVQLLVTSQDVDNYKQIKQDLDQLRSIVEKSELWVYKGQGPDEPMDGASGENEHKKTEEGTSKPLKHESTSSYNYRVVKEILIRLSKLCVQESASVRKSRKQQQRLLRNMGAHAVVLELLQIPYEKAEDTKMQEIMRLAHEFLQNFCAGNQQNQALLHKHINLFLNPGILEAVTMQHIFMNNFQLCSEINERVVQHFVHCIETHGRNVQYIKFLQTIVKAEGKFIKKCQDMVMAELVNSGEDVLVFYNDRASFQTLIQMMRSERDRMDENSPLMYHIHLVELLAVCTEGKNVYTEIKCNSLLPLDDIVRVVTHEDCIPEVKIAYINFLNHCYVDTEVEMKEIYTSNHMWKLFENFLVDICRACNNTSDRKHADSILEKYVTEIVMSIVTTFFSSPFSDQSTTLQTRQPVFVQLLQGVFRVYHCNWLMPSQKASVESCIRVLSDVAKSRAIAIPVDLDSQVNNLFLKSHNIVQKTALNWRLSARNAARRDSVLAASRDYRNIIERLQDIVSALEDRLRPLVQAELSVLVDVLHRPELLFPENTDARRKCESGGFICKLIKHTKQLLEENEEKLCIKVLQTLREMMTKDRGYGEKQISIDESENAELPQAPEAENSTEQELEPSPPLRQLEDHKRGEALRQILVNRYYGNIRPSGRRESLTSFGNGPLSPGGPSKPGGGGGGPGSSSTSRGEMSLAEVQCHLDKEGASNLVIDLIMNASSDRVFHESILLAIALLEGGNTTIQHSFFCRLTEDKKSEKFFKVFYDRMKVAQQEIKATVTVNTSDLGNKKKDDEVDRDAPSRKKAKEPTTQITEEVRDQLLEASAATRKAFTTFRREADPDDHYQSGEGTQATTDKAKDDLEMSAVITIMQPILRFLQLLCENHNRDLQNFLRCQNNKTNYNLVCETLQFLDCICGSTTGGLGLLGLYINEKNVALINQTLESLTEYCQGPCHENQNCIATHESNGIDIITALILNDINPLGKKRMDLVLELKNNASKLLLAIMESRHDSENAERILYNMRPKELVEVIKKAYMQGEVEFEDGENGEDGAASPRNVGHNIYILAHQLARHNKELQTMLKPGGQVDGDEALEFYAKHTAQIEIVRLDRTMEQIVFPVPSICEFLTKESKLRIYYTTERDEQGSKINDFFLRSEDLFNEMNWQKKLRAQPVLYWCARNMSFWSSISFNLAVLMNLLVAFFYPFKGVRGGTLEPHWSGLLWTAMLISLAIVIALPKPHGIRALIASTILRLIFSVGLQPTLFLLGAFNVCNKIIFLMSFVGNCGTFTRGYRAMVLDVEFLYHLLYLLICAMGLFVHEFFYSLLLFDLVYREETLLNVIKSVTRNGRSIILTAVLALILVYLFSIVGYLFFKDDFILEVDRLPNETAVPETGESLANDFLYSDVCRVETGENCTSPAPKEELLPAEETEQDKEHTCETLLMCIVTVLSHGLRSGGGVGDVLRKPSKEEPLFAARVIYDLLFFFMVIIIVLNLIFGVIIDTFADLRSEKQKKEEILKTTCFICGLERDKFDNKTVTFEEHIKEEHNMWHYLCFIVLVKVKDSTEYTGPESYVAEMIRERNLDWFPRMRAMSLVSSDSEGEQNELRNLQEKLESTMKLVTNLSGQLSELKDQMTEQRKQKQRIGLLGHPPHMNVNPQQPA

NCCOB(c1ccccc1)c1ccccc1 [2-APB]
IP3 receptor function (IP3 receptor): affect IP3 receptor function

O=P(O)(O)O[C@@H]1[C@H](O)[C@H](O)[C@@H](OP(=O)(O)O)[C@H](OP(=O)(O)O)[C@H]1O [IP3, inositol 1,4,5-trisphosphate]
Kd (native cerebellar IP3R): 83 nM

COC(=O)Nc1nc2ccc(C(=O)c3cccs3)cc2[nH]1 [Nocodazole, nocodazole]
IP3R1 phosphorylation at both Ser421 and Thr799 [1]: greatly enhanced IP3R1 phosphorylation

CC[C@H](CO)Nc1nc(NCc2ccccc2)c2ncn(C(C)C)c2n1 [roscovitine]
syncytial cell death induced by HIV infection [2]: prevented syncytial cell death

Xestospongin
IP3 receptor function (IP3 receptor): affect IP3 receptor function
